No end group written: not given here.
How the values were obtained:
[1] = system: mouse (C57Black/J); assay: Conditioned motility suppression test (CMST); type: in vivo; conditions: propeptide IV 100 μl at 1 μM per animal; 30 min after injection
Text: The inventors conducted three types of behavioral experiments that are regarded as classical for determining the antidepressant activity of a substance (Nestler E. J., Gould E., Manji H., Buncan M., Duman R. S., Greshenfeld H. K., Hen, R. et al. “Preclinical models: status of basic research in depression” Biol Psychiatry. 15, 503-528 (2002) (20) and Cryan, J. & Holmes, A. “The ascent of mouse: advances in modeling human depression and anxiety” Nat Rev Drug Discov. 4, 775-790 (2005) (21)). The effects of the propeptide of the present invention were compared with those of the saline solution in which it is dissolved and with those of fluoxetine, one of the most-used antidepressants in clinical practice. The mouse strain used is C57Black/J strain. TREK-1^−/− mice were also measured in these various tests.
In the next two tests, the propeptide of the present invention was administered by the IV route at a rate of 100 μl at 1 μM per animal.
C. Conditioned Motility Suppression Test (CMST) (see Daugé, V., Sebret, A., Beslot, F., Matsui, T., & Rogues B. “Behavioral profile of CCK2 receptor-deficient mice” Neuropsychopharmacol; 25: 690-698 (2001) (23).
The experiment consists of conditioning the mouse on day 1, and measuring the effects of the substances on day 2.
On day 1, each mouse is placed in a box where the floor is a metal grille connected to an electric stimulator. […]

[2] = system: hippocampus progenitor cells; assay: Hippocampal neurogenesis (BrdU-positive cells), 2 weeks of treatment; type: in vivo, mouse; conditions: 10 μM propeptide injected for 2 weeks
Procedure: Treatments with antidepressants are known to increase neurogenesis in the hippocampus (Santarelli, L., Saxe, M, Gross, C, Surget, A, Battaglia, F, Dulawa, S, Weisstaub, N, Lee, J, Duman, R, Arancio, O, Belzung, C, Hen, R et al. “Requirement of hippocampal neurogenesis for the behavioral effects of antidepressants” Science, 301: 805-809 (2003) (24). This cellular proliferation is measured from the increase of “progenitor” cells that incorporate a marker, 5-bromo-2-deoxyuridine (BrdU), and are transformed to mature neurons. The BrdU is detected by immunohistochemistry.
On day 1, the animals are injected IP with 300 μl of an aqueous solution of 10 mM of BrdU, then put back in the cage.
On day 2, the animals are euthanased and then the tissues are fixed by intracardiac perfusion of a cold solution of 4% paraformaldehyde. The brains are removed and then frozen at −20° C.
Series of 40 μm sections are prepared, so as to cover the entire hippocampal structure, using a vibratome (Leica). One section out of six is retained for measuring the incorporation of BrdU by means of a monoclonal mouse anti-BrdU antibody (Becton Dickinson). […] The peroxidase activity is visualized by hydrolysis of DAB. The cells labeled in this way are counted on each section. […]

[3] = system: C57BL6/J mice; assay: Tail flick test of sensitivity to pain; type: in vivo, mouse; conditions: bath at 48° C.; 100 μl at 10^−6 M; 30 minutes after injection
Procedure: This test consists of immersing the tail of a mouse in a bath at 48° C. and measuring the time it takes to withdraw it from the bath. Before any injections, a habituation test was carried out on the mouse. It consists of immersing the tail of each animal twice in the bath so as to have homogeneous groups before any treatment (obtaining a reaction time less than 12 seconds). Then the mice were injected with 100 μl of physiological saline solution (“PHYS SALINE”) or 100 μl of peptide of sequence ID No. 2 at a concentration of 10^−6 M (“PE 10^−6M”).
The mice used were C57BL6/J mice. Each group was constituted of 10 mice.
The measurements were taken 30 minutes after injection.
(§1) The difference was evaluated using the Student t test.

[4] = system: C57BL6/J mice; assay: Focal ischemia (middle cerebral artery occlusion), infarct size; type: in vivo, mouse; conditions: daily IP 100 μl at 10^−5 M for a week, vs physiological saline
Procedure: The model used for inducing a CVA is that of focal ischemia, which consists of occlusion of the middle cerebral artery with a thread (Heurteaux C., Laigle, C., Blondeau, N., Jarretou, G., Lazdunski, M. “Alpha-linolenic acid and riluzole treatment confer cerebral protection and improve survival after focal brain ischemia” Neuroscience, 137: 241-251 (2006) (27). The size of the infarcts caused by this focal ischemia was measured after staining brain sections with cresyl violet. The infarct is measured by tracing the contour of the infarct zone by an image analysis system (Olympus DP Soft) according to the method described in Heurteaux et al., 2006 (27). The brains of C57BL6/J mice (at the rate of 10 mice per experimental group) are treated for a week with a daily intraperitoneal injection of 100 μl of a solution containing either the peptide of sequence ID No. 2 at a concentration of 10^−5M (“PE 10^−5M” group), or with a solution of physiological saline solution (“PHYS SALINE” group). The values were compared between the two groups.
as §1

[5] = system: hippocampus progenitor cells; assay: Neurogenesis (BrdU-positive cells) after 4 days of treatment; type: in vivo, mouse; conditions: PE 10^−5 M
Text: In contrast to many antidepressants now commonly used, the efficacy of action of the peptide of the invention is very rapid. […] 93: 3908-3913 (1996) (28) and with a considerable decrease in neurogenesis in the dentate gyrus (Gould, E., Tanapat, P., McEwen, B. S., Flugge, G., Fuchs, E. “Proliferation of granule cell precursors in the dentate gyrus of adult monkeys is diminished by stress” Proc Natl Acad Sci USA, 95: 3168-3171 (1998)) (29).
The experimental protocol is that described in the material and methods (Supplement) of the work of Santarelli et al., “Requirement of hippocampal neurogenesis for the behavioral effects of antidepressants” Science, 301: 805-809 (2003) (24) apart from the duration of treatment, which is four days.
The increase was evaluated using the one-factor ANOVA test followed by the post-hoc test.

Sequence: APLPRWSGPIGVSWGLR [propeptide, APLPRWSGPIGVSWGLR]
- motility relative to untreated shocked mice [1]: 7 times greater
- neurogenesis (BrdU-labeled cells) [2]: considerable neurogenesis comparable to that induced by fluoxetine
- time to withdraw tail from bath [3]: 8.3 ± 0.7 s
- size of the infarct caused by focal ischemia [4]: does not have a significant effect
- neurogenesis relative to physiological saline [5]: significant increase in neurogenesis
